From US8513306B2, “Enhancement of urogenital function” (priority 2005, dated 2013)

Key:
patients = conditions: in vivo; cited from earlier work
younger subject two [1] = assay: Trial: small amounts of amantadine with creatine, with or without a PDE5 inhibitor ED drug; assay type: in vivo, human; conditions: for Results in conjugal sexual activity: ED drugs in low doses over the past four years; for Effectiveness of small dose of the PDE5 inhibitor ED drug alone: VIAGRA about 12.5 mg or LEVITRA about 2.5 mg, normally
Procedure: In a trial, the younger subject two ingested small amounts of amantadine along with about 88 mg of creatine. The small amounts of amantadine were measured by opening a capsule of amantadine and pouring out small amounts. Ten individual administrations used less than one 100 mg capsule of amantadine. Thus, the dose of amantadine was approximately 5 mg to approximately 10 mg.
The subject noted a body weight that varied little from about 78 kg over the past twenty plus years. The subject noted no use of blood pressure or other prescribed medications on a regular basis.

younger subject two [2] = assay: Trial: occasional amantadine for flu prophylaxis, nocturnal urinary symptoms; assay type: in vivo, human; conditions: occasional administration of about 100 mg
Procedure: A trial involving the younger subject two involved occasional administration of about 100 mg of amantadine for flu prophylaxis.

[3] = system: subject one with nocturia and diagnosed moderate prostate enlargement; assay: Trial: single dose of creatine monohydrate powder in solution prior to sleep; assay type: in vivo, human; conditions: person two
Procedure: A trial provided creatine monohydrate as a powder (about 100% creatine monohydrate) and administered a single dose (approximately 0.1 to 0.2 g) of the creatine monohydrate powder in a solution (about 0.09 to 0.17 g creatine) approximately 0.5 to 3 hours prior to sleep. Urinary flow-related symptoms were reduced for the immediate sleep period and for sleep periods during the following 48 hours.
The subject weighed approximately 80 kg (about 175 lbs). Thus, the dosage was about 0.9 mg of creatine per kg of body weight. Range may vary by individual and prior consumption of a creatine compound. A general range for CSUE may be from about 0.4 mg creatine monohydrate to about 4.0 mg creatine monohydrate per kg body weight per day (e.g., about 32 mg to about 320 mg per day for a subject weighing about 80 kg). As already mentioned, the various trials used creatine monohydrate powder (about 100%) in solution. Thus, in terms of creatine content, the general range for CSUE may be from about 0.35 mg creatine per kg body weight per day (e.g., about 0.4*(3.124.4/5) mg) to about 3.5 mg creatine per kg body weight per day (e.g., 4.0*(3.124.4/5) mg). While dose may vary from patient to patient, the dose is typically less than the dose for CSR.

[4] = system: varsity football and track athletes; conditions: 3 g per day without prior loading; cited from earlier work
[5] = system: two male subjects with urinary symptoms; assay: Additional trials: creatine monohydrate in solution, loading phase and maintenance phase; assay type: in vivo, human
Procedure: […] […] […] The post-loading phase is referred to herein as a maintenance phase. The dose may vary during the maintenance phase; however, it is generally at least 50% less than the dose used in a loading phase.
In these trials, urinary flow-related symptoms were reduced.
However, in various trials, a delay in relief was experienced that corresponded to the dose size where a larger than required dose would actually delay relief (e.g. beyond 24 hours to as much as 72 hours). […] Such trials indicate that a dosage range exists for relief of symptoms and for timing of the relief.

younger subject one = assay: Observation of the younger subject on lycopene-containing foods; assay type: in vivo, human; conditions: on occasion, for one day at a time
Excerpt: Other exemplary compositions may include lycopene. […] Lycopene is present in tomato products while other foods of interest include certain beans and blue berries. An exemplary method includes administering such a composition. For example, a composition that includes creatine and lycopene may be administered to a subject to treat a urologic disorder. An exemplary method includes administering creatine and lyocpene to treat a urologic disorder.

[6] = in vivo; cited from earlier work
[7] = single dose approx 0.1 to 0.2 g in solution prior to sleep

CC12CC3CC(C)(C1)CC(N)(C3)C2 [Memantine, 1-amino-3,5-dimethyl-adamantane]
Tolerability (patients): generally well-tolerated

CCCc1nc(C)c2c(=O)nc(-c3cc(S(=O)(=O)N4CCN(CC)CC4)ccc3OCC)[nH]n12 [LEVITRA®, 4-[2-ethoxy-5-(4-ethylpiperazin-1-yl)sulfonyl-phenyl]-9-methyl-7-propyl-3,5,6,8-tetrazabicyclo[4.3.0]nona-3,7,9-trien-2-one]
Results in conjugal sexual activity (younger subject two [1]): good results | Effectiveness of small dose of the PDE5 inhibitor ED drug alone (younger subject two [1]): somewhat marginally effective

NC12CC3CC(CC(C3)C1)C2 [amantadine, adamantan-1-amine]
Effect compared with DHEA taken to enhance libido (readiness for and enjoyment of orgasm) (younger subject two [1]; about 5 mg of amantadine): similarly beneficial but distinct effect | Effect relative to that of the PDE5 inhibitor ED drugs (younger subject two [1]; subject's observation): additive | Nocturnal urinary symptoms (younger subject two [2]): reduction in nocturnal urinary symptoms

CCCc1nn(C)c2c(=O)[nH]c(-c3cc(S(=O)(=O)N4CCN(C)CC4)ccc3OCC)nc12.O=C(O)CC(O)(CC(=O)O)C(=O)O [VIAGRA®, 1-[4-ethoxy-3-(6,7-dihydro-1-methyl-7-oxo-3-propyl-1H-pyrazolo[4,3-d]pyrimidin-5-yl)phenylsulfonyl]-4-methylpiperazine citrate]
Results in conjugal sexual activity (younger subject two [1]): good results | Effectiveness of small dose of the PDE5 inhibitor ED drug alone (younger subject two [1]): somewhat marginally effective

CN(CC(=O)O)C(=N)N.O [creatine monohydrate]
Urinary flow-related symptoms ([3]; single dose approx 0.1 to 0.2 g in solution 0.5 to 3 hours prior to sleep, immediate sleep period and sleep periods of following 48 hours): reduced | Nocturnal erections [3, 7]: increase in nocturnal erections | Testicular blood flow as evidenced by palpable scrotal content enlargement [3, 7]: increase in testicular blood flow | Ergogenic effect [4]: did not observe ergogenic effect | Symptoms (urinary) ([5]; both subjects, loading phase 0.1 to 1.0 g, then maintenance about 50 to 150 mg every other day): symptoms were relieved | Initiation of urine stream at night ([5]; doses larger than about 0.25 g in the maintenance phase, younger subject): more difficult until 24 hours to 48 hours later | Urinary symptom reduction ([5]; doses of greater than 1 g after the loading phase, both subjects): less urinary symptom reduction

CC(C)=CCC/C(C)=C/C=C/C(C)=C/C=C/C(C)=C/C=C/C=C(C)/C=C/C=C(C)/C=C/C=C(\C)CCC=C(C)C [Lycopene, lycopene]
Nocturnal urine stream slowing (younger subject one): a lack of nocturnal urine stream slowing

C[C@]12CC[C@H](OS(=O)(=O)O)CC1=CC[C@@H]1[C@@H]2CC[C@]2(C)C(=O)CC[C@@H]12 [DHEA-S, DHEA-sulfate]
Levels of testosterone and androstenedione [6]: increased levels
